Experiments:
[1] = tested on: GIST882 cells; experiment: GIST882 cell proliferation assay (ATPLite luminescent ATP detection); format: cell-based; conditions: Homo sapiens; GIST882 cells (KIT K-642-E), 70 h incubation, mean value; read-out: mean IC50, inhibition of proliferation of GIST882 cells
Description: The effects of compounds on viability and proliferation of the cells is determined using the luminescent ATP Detection assay kit ATPLite™ from Perkin Elmer Life Sciences (Cat. No: 6016947) according to the instructions of the suppliers. This assay system is based on the production of light (luminescence) caused by the reaction of ATP with added luciferase and D-luciferin.
GIST882, is a human gastrointestinal stromal tumor (GIST) cell line expressing an activating KIT mutation (exon 13, K-642-E) (Tuveson D A, Willis N A, Jacks T, Griffin J D, Singer S, Fletcher C D, Fletcher J A, Demetri G D, STI571 inactivation of the gastrointestinal stromal tumor c-KIT oncoprotein: biological and clinical implications, Oncogene, 2001 Aug. 16; 20(36):5054-8). The GIST882 cells are cultivated in RPMI 1640 (Invitromex, Cat. No: L0501), supplemented with 15% FCS, and 2 mM glutamine (Gibco). […]
GIST882 cells are seeded into black 96-well tissue culture plates (Packard) at a density of 10000 cells per well in 50 μL complete medium and incubated for one day in order to allow for attachment of the cells. […] Subsequently, 50 μL substrate solution (luciferase and D-luciferin) is added and after 5 min shaking and 10 min dark-adaptation of the plates, light emission was measured with a Packard TopCount. […]

[2] = tested on: systemic mastocytosis (SM) patients; experiment: Phase II open-label study in SM patients; format: in vivo, human; conditions: 400 mg orally twice daily, first 23 pts, preliminary data
Description: A Phase II, open-label study was designed to evaluate the safety and efficacy of Compound (II) administered orally 400 mg twice daily. SM patients meeting specific disease criteria and with a clinical indication for treatment were enrolled. The results are based on preliminary data for the first 23 pts in this study. Results: The median age was 49 (range 33-78) yrs and the median time from diagnosis of SM was 27 (range 1 to 292) months. […] The median exposure to Compound (II) was 144 days. Treatment is ongoing for 18 (78%) pts; 5 (22%) discontinued, 3 (13%) for adverse events and 2 (9%) withdrew consent. Three (13%) responses were reported (2 incomplete remission and 1 minor response), based on serum tryptase, bone marrow mast cell counts and improvement of clinical symptoms.

Q: What does the source list for Cc1cn(-c2cc(NC(=O)c3ccc(C)c(Nc4nccc(-c5cccnc5)n4)c3)cc(C(F)(F)F)c2)cn1 [Compound (II), 4-methyl-3-[[4-(3-pyridinyl)-2-pyrimidinyl]amino]-N-[5-(4-methyl-1H-imidazol-1-yl)-3-(trifluoromethyl)phenyl]benzamide]?
A: IC50 [1]: < 200 nM; discontinued for adverse events ([2]; median exposure 144 days): 13%; safety and tolerability in pts with SM [2]: acceptable safety and tolerability profile; responses (based on serum tryptase, bone marrow mast cell counts and improvement of clinical symptoms) ([2]; 2 incomplete remission and 1 minor response): 13%

— US8673930B2, “Pyrimidylaminobenzamide derivatives for systemic mastocytosis” (Novartis AG, priority 2005, dated 2014)
